Assay results published in US10264794B2, “Compositions comprising unsaturated fatty esters and uses thereof” (priority 2013, dated 2019).

Test system: ASTM test fungi
Assay: Agar plate testing
Assay type: cell-based
Details: agar plates, 14 days at 30 C
Description: ASTM test fungi in Petri dishes were subjected to Treatment solutions with and without unsaturated fatty esters (linoleic, oleic, linolenic and arachidonic esters as a 1:1:1:1 ratio). The agar plate test method allowed for rapid determinations of antifungal efficacy against wood-degrading strains of concern. The certified cultures were obtained from the American Type Culture Collection (ATCC) and propagated as per the product information sheets: • Irpex lacteus: ATCC number 11245, yeast medium Difco 0712 (ATCC medium no. 200) • Neolentius lepideus: ATCC number 12653, YM agar Difco 0712 (ATCC medium no. 200) • Postia poria: ATCC number 11538, YM agar Difco 0712 (ATCC medium no. 200) • Pleurotus ostreatus: ATCC number 32237, YM agar Difco 0712 (ATCC medium no. 200) • Trametes versicolor: ATCC number 42462, Hagem's-Modess medium (ATCC medium no. 479) • Gleoephyllum trabeum: ATCC number 11539, Potato Dextrose Agar with 0.5% yeast extract (ATCC medium no. 337)
Each plate was then inoculated in a flame induced sterile environment with a 5 mm diameter agar plug fungal colony of those fungi listed. […] The plates were incubated for 14 days at 30 C and the presence or absence of fungal growth was noted and measured.

Oc1c(Cl)c(Cl)c(Cl)c(Cl)c1Cl [PCP, pentachlorophenol]
growth of fungi: completely inhibited
